According to patent US10597388B2, “Pyridazinone herbicides” (FMC CORPORATION, priority 2014, dated 2020):

How the values were obtained:
Assay in all cases: Test E greenhouse herbicide test, pre- and postemergence
Assay type in all cases: in vivo
[1] = tested on: Italian ryegrass (Lolium multiflorum)
In short: (§1)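 Pre- and postemergence sprays, same solvent–surfactant formulation. Substrate: silt loam (pre), peat-based mix (post, 1–4 leaf, 2–18 cm). Readout: visual control rating 0–100 against controls at 14–21 d.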

[2] = tested on: barnyardgrass (Echinochloa crus-galli)
In short: as §1

[3] = tested on: crabgrass, large (large crabgrass, Digitaria sanguinalis); conditions: Preemergence
In short: as §1

[4] = tested on: dayflower (Virginia (VA) dayflower, Commelina virginica)
In short: as §1

[5] = tested on: field bindweed (Convolvulus arvensis)
In short: as §1

[6] = tested on: foxtail, green (green foxtail, Setaria viridis); conditions: Preemergence
In short: as §1

[7] = tested on: momingglory (Ipomoea coccinea); conditions: Preemergence
In short: as §1

[8] = tested on: nutsedge, yellow (yellow nutsedge, Cyperus esculentus); conditions: Preemergence
In short: as §1

[9] = tested on: waterhemp (common waterhemp, Amaranthus rudis)
In short: as §1

[10] = tested on: horseweed (Conyza canadensis); conditions: Postemergence
In short: as §1

[11] = 62 g ai/ha, Postemergence, scale 0 to 100 (0 no effect, 100 complete control)
[12] = 62 g ai/ha, Preemergence, scale 0 to 100 (0 no effect, 100 complete control)
[13] = 125 g ai/ha, Postemergence, scale 0 to 100 (0 no effect, 100 complete control)
[14] = 125 g ai/ha, Preemergence, scale 0 to 100 (0 no effect, 100 complete control)
[15] = 250 g ai/ha, Postemergence, scale 0 to 100 (0 no effect, 100 complete control)
[16] = Postemergence, 16 g ai/ha, visual, scale 0 no effect to 100 complete control
[17] = Postemergence, 31 g ai/ha, visual, scale 0 no effect to 100 complete control
[18] = Preemergence, 16 g ai/ha, scale 0 to 100, 0 no effect, 100 complete control
[19] = Preemergence, 31 g ai/ha, scale 0 to 100, 0 no effect, 100 complete control
[20] = Preemergence, 250 g ai/ha, visual, scale 0 no effect to 100 complete control
[21] = Preemergence, 125 g ai/ha, visual, scale 0 no effect to 100 complete control
[22] = 62 g ai/ha, scale 0 to 100 (0 no effect, 100 complete control)
[23] = 16 g ai/ha, scale 0 to 100, 0 no effect, 100 complete control
[24] = 31 g ai/ha, scale 0 to 100, 0 no effect, 100 complete control
[25] = 125 g ai/ha, visual, scale 0 no effect to 100 complete control
[26] = 250 g ai/ha, visual, scale 0 no effect to 100 complete control
[27] = 125 g ai/ha, scale 0 to 100 (0 no effect, 100 complete control)

Cc1ccc2sc(C)c(-c3c(O)c(C)nn(C)c3=O)c2c1 [Compound 1, 4-(2,5-dimethylbenzo[b]thien-3-yl)-5-hydroxy-2,6-dimethyl-3(2H)-pyridazinone]
Plant response rating, Ryegrass, Italian [1, 11]: 50
Plant response rating, Ryegrass, Italian [1, 12]: 100
Plant response rating, Ryegrass, Italian [1, 13]: 65
Plant response rating, Ryegrass, Italian [1, 14]: 100
Plant response rating, Ryegrass, Italian [1, 15]: 90
Plant response rating, Ryegrass, Italian [1, 16]: 20
Plant response rating, Ryegrass, Italian [1, 17]: 35
Plant response rating, Ryegrass, Italian [1, 18]: 70
Plant response rating, Ryegrass, Italian [1, 19]: 95
Plant response rating, Ryegrass, Italian [1, 20]: 100
Plant response rating, Barnyardgrass [2, 11]: 20
Plant response rating, Barnyardgrass [2, 12]: 0
Plant response rating, Barnyardgrass [2, 13]: 25
Plant response rating, Barnyardgrass [2, 15]: 35
Plant response rating, Barnyardgrass [2, 16]: 10
Plant response rating, Barnyardgrass [2, 17]: 15
Plant response rating, Barnyardgrass [2, 18]: 0
Plant response rating, Barnyardgrass [2, 19]: 0
Plant response rating, Barnyardgrass [2, 21]: 0
Plant response rating, Barnyardgrass [2, 20]: 20
Plant response rating, Crabgrass, Large [3, 22]: 20
Plant response rating, Crabgrass, Large [3, 23]: 0
Plant response rating, Crabgrass, Large [3, 24]: 0
Plant response rating, Crabgrass, Large [3, 25]: 35
Plant response rating, Crabgrass, Large [3, 26]: 65
Plant response rating, Dayflower, VA [4, 11]: 0
Plant response rating, Dayflower, VA [4, 12]: 20
Plant response rating, Dayflower, VA [4, 13]: 30
Plant response rating, Dayflower, VA [4, 15]: 50
Plant response rating, Dayflower, VA [4, 16]: 0
Plant response rating, Dayflower, VA [4, 17]: 0
Plant response rating, Dayflower, VA [4, 18]: 0
Plant response rating, Dayflower, VA [4, 19]: 0
Plant response rating, Dayflower, VA [4, 21]: 15
Plant response rating, Dayflower, VA [4, 20]: 25
Plant response rating, Field Bindweed [5, 11]: 70
Plant response rating, Field Bindweed [5, 12]: 80
Plant response rating, Field Bindweed [5, 13]: 85
Plant response rating, Field Bindweed [5, 15]: 95
Plant response rating, Field Bindweed [5, 16]: 65
Plant response rating, Field Bindweed [5, 17]: 65
Plant response rating, Field Bindweed [5, 18]: 5
Plant response rating, Field Bindweed [5, 19]: 20
Plant response rating, Field Bindweed [5, 21]: 95
Plant response rating, Field Bindweed [5, 20]: 100
Plant response rating, Foxtail, Green [6, 22]: 70
Plant response rating, Foxtail, Green [6, 23]: 0
Plant response rating, Foxtail, Green [6, 24]: 15
Plant response rating, Foxtail, Green [6, 25]: 90
Plant response rating, Foxtail, Green [6, 26]: 90
Plant response rating, Morningglory [7, 22]: 98
Plant response rating, Morningglory [7, 27]: 90
Plant response rating, Morningglory [7, 23]: 20
Plant response rating, Morningglory [7, 24]: 60
Plant response rating, Morningglory [7, 26]: 100
Plant response rating, Nutsedge, Yellow [8, 22]: 15
Plant response rating, Nutsedge, Yellow [8, 27]: 50
Plant response rating, Nutsedge, Yellow [8, 23]: 0
Plant response rating, Nutsedge, Yellow [8, 24]: 10
Plant response rating, Nutsedge, Yellow [8, 26]: 70
Plant response rating, Waterhemp [9, 11]: 95
Plant response rating, Waterhemp [9, 12]: 100
Plant response rating, Waterhemp [9, 13]: 98
Plant response rating, Waterhemp [9, 14]: 100
Plant response rating, Waterhemp [9, 15]: 100
Plant response rating, Waterhemp [9, 16]: 70
Plant response rating, Waterhemp [9, 17]: 85
Plant response rating, Waterhemp [9, 18]: 35
Plant response rating, Waterhemp [9, 19]: 90
Plant response rating, Waterhemp [9, 20]: 100

CCC(=O)Oc1c(C)nn(C)c(=O)c1-c1c(C)sc2ccc(C)cc12 [Compound 42]
Plant response rating, Ryegrass, Italian [1, 11]: 70
Plant response rating, Ryegrass, Italian [1, 13]: 85
Plant response rating, Ryegrass, Italian [1, 15]: 90
Plant response rating, Ryegrass, Italian [1, 17]: 50
Plant response rating, Barnyardgrass [2, 11]: 30
Plant response rating, Barnyardgrass [2, 13]: 30
Plant response rating, Barnyardgrass [2, 15]: 35
Plant response rating, Barnyardgrass [2, 17]: 20
Plant response rating, Dayflower, VA [4, 11]: 50
Plant response rating, Dayflower, VA [4, 13]: 60
Plant response rating, Dayflower, VA [4, 15]: 70
Plant response rating, Dayflower, VA [4, 17]: 30
Plant response rating, Field Bindweed [5, 11]: 85
Plant response rating, Field Bindweed [5, 13]: 90
Plant response rating, Field Bindweed [5, 15]: 90
Plant response rating, Field Bindweed [5, 17]: 90
Plant response rating, Horseweed [10, 22]: 75
Plant response rating, Horseweed [10, 27]: 75
Plant response rating, Horseweed ([10]; 250 g ai/ha, scale 0 to 100 (0 no effect, 100 complete control)): 85
Plant response rating, Horseweed ([10]; 31 g ai/ha, visual, scale 0 no effect to 100 complete control): 75
Plant response rating, Waterhemp [9, 11]: 80
Plant response rating, Waterhemp [9, 13]: 100
Plant response rating, Waterhemp [9, 15]: 90
Plant response rating, Waterhemp [9, 17]: 75

C#CCOC(=O)Oc1c(C)nn(C)c(=O)c1-c1c(C)sc2ccc(C)cc12 [Compound 87]
Plant response rating, Ryegrass, Italian [1, 12]: 95
Plant response rating, Ryegrass, Italian [1, 14]: 98
Plant response rating, Ryegrass, Italian [1, 19]: 75
Plant response rating, Ryegrass, Italian [1, 20]: 100
Plant response rating, Barnyardgrass [2, 12]: 0
Plant response rating, Barnyardgrass [2, 14]: 10
Plant response rating, Barnyardgrass [2, 19]: 0
Plant response rating, Barnyardgrass [2, 20]: 35
Plant response rating, Crabgrass, Large [3, 22]: 0
Plant response rating, Crabgrass, Large [3, 27]: 65
Plant response rating, Crabgrass, Large [3, 24]: 0
Plant response rating, Crabgrass, Large [3, 26]: 65
Plant response rating, Dayflower, VA [4, 12]: 0
Plant response rating, Dayflower, VA [4, 14]: 10
Plant response rating, Dayflower, VA [4, 19]: 0
Plant response rating, Dayflower, VA [4, 20]: 35
Plant response rating, Field Bindweed [5, 12]: 98
Plant response rating, Field Bindweed [5, 14]: 95
Plant response rating, Field Bindweed [5, 19]: 40
Plant response rating, Field Bindweed [5, 20]: 100
Plant response rating, Foxtail, Green [6, 22]: 20
Plant response rating, Foxtail, Green [6, 27]: 60
Plant response rating, Foxtail, Green [6, 24]: 20
Plant response rating, Foxtail, Green [6, 26]: 80
Plant response rating, Morningglory [7, 22]: 35
Plant response rating, Morningglory [7, 27]: 50
Plant response rating, Morningglory [7, 24]: 20
Plant response rating, Morningglory [7, 26]: 90
Plant response rating, Nutsedge, Yellow [8, 22]: 60
Plant response rating, Nutsedge, Yellow [8, 27]: 65
Plant response rating, Nutsedge, Yellow [8, 24]: 0
Plant response rating, Nutsedge, Yellow [8, 26]: 60
Plant response rating, Waterhemp [9, 12]: 90
Plant response rating, Waterhemp [9, 14]: 90
Plant response rating, Waterhemp [9, 19]: 75
Plant response rating, Waterhemp [9, 20]: 100
